We go through 2 compounds from patent US20260216142A1, “USES OF ZLN-005 AND RELATED COMPOUNDS” (priority 2022, published 2026).

Structures are written as SMILES.

The subject of experiment [1] is cecal ligation and perforation (CLP) model. Briefly: CLP model of sepsis: survival and behavior. It counts as in vivo, C57BL/6 mice. The following applies: 12 mg/kg i.p. daily Day 0 to Day 2. How it is done:
Cecal ligation and perforation was performed on C57BL/6 mice about 10 to 20 weeks of age. Mice were administered either ZLN-005 at 12 mg/kg (i.p.) or vehicle (DMSO) at the time of cecal ligation and perforation, 24 hours later, and 48 hours later (FIG. 1A).
C57BL/6 mice were purchased from Shimizu Laboratory Supplies Co., Ltd. (Kyoto, Japan). Mice were housed in specific-pathogen-free conditions with free access to food and water. Mice were anesthetized by inhalation of isoflurane (099-06571, FUJIFILM Wako Pure Chemical Corporation, Tokyo, Japan). A midline incision was made, followed by externalization, and the cecum was then ligated at half the distance between the distal pole and the base of the cecum and punctured with a 21-gauge needle (NN-2116R, Terumo Corporation, Tokyo, Japan). Next, a small amount of fecal mass from the punctured cecum was gently squeezed out to ensure patency of punctures, the cecum was relocated, and 6/0 Ethicon PROLENE Suture (Ethicon, Inc., Raritan, NJ, USA) was used to close the peritoneum and skin. Sham-operated mice underwent only incision and cecum exteriorization. […]
The results are presented as the means±standard deviations. The statistical significance of differences among groups was evaluated using parametric unpaired t tests for bar graphs. […]

In the next experiment the test system is naïve THP-1. Briefly: Expression over time in naïve THP-1. The class given is cell-based, human.
Another experiment concerns CLP sepsis model. As to the kind of experiment: Echocardiographic measurement at 24 hours post-CLP. It counts as in vivo, mice. The following applies: 24 hours after CLP. How it is done: Chest hair was removed with cream one day before echocardiography was performed using VisualSonics Vevo®@2100 equipped with an 18- to 38-MHz probe (VisualSonics, Toronto, ON, Canada). Mice were anesthetized by inhalation of isoflurane at 24 hours post-CLP. The left ventricle was assessed in the parasternal short-axis view. Left ventricular end-systole or end-diastole was defined as the period when the left ventricular lumen was shortest or most dilated, respectively. Diastolic left ventricular (LV) internal diameters, systolic LV internal diameters, diastolic LV anterior wall, and diastolic LV posterior wall were measured from the LV M-mode tracing at the papillary muscle level. LV wall thickness was calculated as the average of anterior and posterior wall thicknesses.

A further experiment has as its system THP-1 cells. As to the kind of experiment: Autophagy flux (LC3 conversion, Western blotting) in LPS model of THP-1. The class given is cell-based, human. The following applies: 6 hours LPS followed by 2 or 6 hours autophagy inhibitor (50 nM bafilomycin A1 or 30 nM chloroquine). Here is the method:
Cells were incubated at 37° C. in a humidified 5% CO2 incubator. […] After 48 hours, the supernatant of the medium was carefully removed to avoid detaching the cells attached to the bottom of the plate and replaced with new medium containing 1 μM ZLN-005 or DMSO (0.1%) as a control. […] For PI3K inhibition, the cells were seeded in the plate and added 200 nM Wortmannin (AG-CN2-0023-M001, Adipogen Life Sciences Inc.).
Protein levels were quantified using ImageJ™.

Take `CC(C)(C)c1ccc(-c2nc3ccccc3[nH]2)cc1` [ZLN-005, 2-(4-tert-butylphenyl)-1H-benzimidazole]: the “mice alive at 72 hours” value in experiment [1] (72 hours post-CLP) is given as 40%. The “mice alive after 6 days” value in experiment [1] (6 days post-CLP) is 30%. In addition, the “increase in expression at the protein level” value in the experiment on naïve THP-1 (naïve THP-1, 36 hours (data not shown)) is 2 fold. Moreover, the “increase in expression at the mRNA level” value with naïve THP-1 (naïve THP-1, 48 hours (data not shown)) amounted to 2 fold. The compound also registered an ejection fraction with CLP sepsis model of around 50%.

For the compound `CO/C1=C\C(C)=C\[C@@H](C)[C@@H](O)[C@@H](C)C/C(C)=C/C=C/[C@H](OC)[C@@H]([C@@H](C)[C@@H](O)[C@H](C)[C@@]2(O)C[C@@H](O)[C@H](C)[C@@H](C(C)C)O2)OC1=O` [bafilomycin A1], in the experiment with THP-1 cells, the “LC3-II and LC3-II/I ratios” value is reported as “increasing with significant differences”.
